The results in this text go back to patent US20190008870A1, “COMPOSITIONS AND METHODS FOR LIPID METABOLISM DISORDER” (JANSFAT BIOTECHNOLOGY CO., LTD., priority 2016, published 2019).

A short description of assay [1]: Body weight and food intake of mice fed with HFD. The class given is in vivo. As to the method: In the experiment, C57BL/6J male mice (21-22 g), after fasting, were fed an HFD as a model of hyperlipidemia for 8 weeks. During the 2 month experiments, mice fasted for one night before the experiment was changed from a standard diet (STD) to an HFD and then the mice were randomly divided into 13 groups, including a protection group, 2 control and 10 treatment groups. Six mice were used in each group. […] Liver from the protection group supplemented with KMUP-1 HCl (1 mg/kg/day) were used to determine the HMG CoA reductase expression. Each group of mice had free access to drinking water from week 1 to week 14. Tap water was used to normalize mineral nutrition.
Within 2 months, the 3 day food intake average for each animal was measured. The weight gain and plasma lipid levels of each group were determined and compared to the non-treatment control group. Mouse blood was collected during the daytime by cardiac puncture followed by centrifugation at 90×g (Benchtop Centrifuge, U.S.A.) to separate the serum, and frozen at −80° C., for biochemical analysis using a Hitachi Clinical Analyzer 7070 (Hitachi High-Technologies Co. Tokyo, Japan). Agents used in the assays were obtained from Merck & Co. (Kenilworth, N.J., U.S.A.). Triglyceride (TG), total cholesterol, HDL cholesterol and LDL cholesterol in mouse serum were measured by methods used in the clinic. To measure the hepatic Triglyceride, isolated liver were cut into small chips.

The test system of assay [2] is PKA/PKG. Briefly: Hepatic PKA/PKG expression in HFD mice. It is filed as in vivo. The note with it: Control printed 550%.
Assay [3] deals with epididymal fat pads. Put plainly: Epididymal fat pad weight and diameter in HFD mice. It is filed as in vivo. As to the method:
(§1) Mice liver and epididymal fat pads were cut and soaked in formalin, dehydrated through graded alcohols and embedded in paraffin. Specimens of liver tissues and epididymal fat pads fixed with formalin (4%) were embedded in paraffin for one hour at 4° C., cut into 4-μm-thick sections, and subjected to H&E staining before examination by light microscope.

The subject of assay [4] is HSL. Briefly: IHC staining of HSL in epididymal fat pads. It is filed as in vivo, mice. As to conditions: HFD 14 weeks, KMUP-1 2.5 mg/kg/day, Control 34. On the procedure: For IHC of MMP-9/TNFα, HSL/p-HSL/ATGL and eNOS/IL-10, antigen retrieval of de-paraffinated sections was performed in Dako target retrieval solution, pH 9.0, in a vegetable steamer followed by the quenching of endogenous peroxidase activity with 3.0% H2O2 in methanol. Sections were then incubated with specific primary antibodies overnight at 4° C. in a humidified chamber. The antibodies used included rabbit polyclonal anti-eNOS (1:50 dilution) (Abcam, Cambridge, UK) or rabbit monoclonal anti-cleaved caspase-3 (1:50 dilution) (Cell Signaling, U.S.A.). The sections were then examined using a DAKO REAL EnVision™ Detection System kit (DAKO, Carpinteria, Calif., U.S.A.) and counterstained with hematoxylin. Images were obtained through a Nikon Eclipse TE200-S microscope.

For assay [5], the system named is ApoA-I. Briefly: ApoA-I expression in HepG2 cells. The class given is cell-based. The note with it: 10^−9-10^−5 M. On the procedure:
(§2) The HepG2 hepatoma cell line was purchased from the American Type Culture Collection (ATCC, Manassas, Va., U.S.A.). Cells were cultured in Dulbecco's Modified Eagle's Medium (DMEM). The culture media was supplemented with 5% heat-inactivated FBS, penicillin (100 U/mL) and streptomycin (100 μg/mL). Cells were grown in a humidified atmosphere containing 5% CO2 at 37° C., in which the oxygen tension in the incubator was held at 140 mmHg (20% O2, v/v; normoxic conditions). […] Then the targeted drugs solution was incubated with the cells for 24 hours, followed by protein extraction. The targeted drugs were added to the […].
(§3) HepG2 cells were treated with various concentrations of targeted drugs for 24 hours. Reactions were terminated by washing twice with cold PBS, and the cells were then harvested. Proteins in the whole-cell lysate were homogenized in an ice-cold lysis buffer and a protease inhibitor (Sigma-Aldrich, St. Louis, Mo., U.S.A.). The homogenate was centrifuged at 90,000×g for 15 minutes at 4° C., and supernatant was recovered as the total cellular protein. […]

Assay [6] concerns LXRα. Put plainly: LXRα expression in HepG2 cells. It is filed as cell-based. As to conditions: 10^−9-10^−5 M. On the procedure: as §2, §3
Assay [7] relates to PDE-5A. Briefly: Expression of PDE-5A (Table 12). The note with it: Control group 100 (%).
Assay [8] has as its system ROCK II. Put plainly: Expression of ROCK II (Table 12). As to conditions: Control group 100 (%).
Assay [9] concerns PKG. Put plainly: PKG expression/immunoreactivity in HepG2 cells. The class given is cell-based. On the procedure: HepG2 cells were treated with various concentrations of targeted drugs for 24 hours. Reactions were terminated by washing twice with cold PBS, and the cells were then harvested. Proteins in the whole-cell lysate were homogenized in an ice-cold lysis buffer and a protease inhibitor (Sigma-Aldrich, St. Louis, Mo., U.S.A.). The homogenate was centrifuged at 90,000×g for 15 minutes at 4° C., and supernatant was recovered as the total cellular protein. Cytosolic and membrane fractions of HepG2 cells were prepared using a CNM (Cytosol Nuclear Membrane) compartmental protein extraction kit (BioChain Institute Inc., Hayward, Calif., U.S.A.) according to the manufacturer's instructions. All of the fractionated protein solutions were stored at −80° C. until analysis. To measure the expression levels of proteins by drugs, the total cell protein was extracted after incubation with treatments for 24 hours and then Western blotting analysis was performed as described previously.
To determine that KMUP-1 or targeted drugs can affect PKA, we incubated KMUP-1 (10^−4, 10^−5, 10^−6 M) or targeted drugs with HepG2 cells for 24 hours to measure the protein expressions of PKA/PKG by Western blotting or PKA/PKG and HSL immunoreactivities by fluorescence staining, combined with image scanning in the absence or presence of oxidized LDL (200 μg/mL).

Assay [10] deals with fatty liver. Briefly: Gross morphology and H&E staining of liver of HFD mice. It is filed as in vivo. As to the method:
as §1

Consider `Cn1c(=O)c2c(ncn2CCN2CCN(c3ccccc3Cl)CC2)n(C)c1=O` [KMUP-1, 7-[2-[4-(2-chlorophenyl)piperazinyl]ethyl]-1,3-dimethylxanthine], for which the body-weight gain entry in assay [1] (HFD mice 8 weeks, KMUP-1 HCl 2.5, 5 mg/kg p.o., simvastatin 5 mg/kg p.o., compared to the control HFD group (p<0.05)) is “reduced”. Also, the “final BW (Body weight)” value in assay [1] (HFD mice, 2.5 mg/kg p.o.) was found to be 25.7 ± 0.7 g; in assay [1] (HFD mice, 5 mg/kg p.o.), 24.3 ± 0.5 g. For the same compound, the body weight entry in [1] (HFD mice, drinking 2.5 mg/200 ml water, protection and treatment groups) is “decreased”. Moreover, the PKA/PKG expression in assay [2] (drinking KMUP-1, Protection group) was 250%; in assay [2] (drinking KMUP-1, Treatment group) it was 100%. Besides, the Fat pads diameter in [3] (HFD mice 14 weeks, KMUP-1 2.5 mg/kg/day, Control 46) was found to be 28 μm. Also, the “Weight of fat pads (R)” value in assay [3] (HFD mice, KMUP-1 2.5 mg/kg/day for 14 weeks, Control 165) came out at 120 mg. Besides, the “Weight of fat pads (L)” value in assay [3] (HFD mice, KMUP-1 2.5 mg/kg/day for 14 weeks, Control 170) stood at 96 mg. Moreover, in assay [4], the “Immunorespons percentages, HSL” value is on record as 57%. Further, the ApoA-I expression entry in assay [5] was “concentration-dependently increased”. In assay [6], the LXRα expression result is recorded as “concentration-dependently increased”. In assay [7], the PDE-5A expression is listed as 64.5 ± 4.5%. Also, the “ROCK II expression” value in assay [8] was determined as 42.5 ± 6.3%. Besides, the PKG immunoreactivity entry in assay [9] (HepG2 cells (data not shown)) is reported as “not significantly affected”. In addition, the “expression of PKG” value in assay [9] (HepG2 cells, 10, 20, 40 μM, in the presence of LDL (500 μg/mL)) is recorded as “increased”. Moreover, in assay [10] (drinking 2.5 mg/200 ml water, protective group), the “Fatty liver (gross morphology)” value was “markedly decreased”. For the same compound, in assay [10] (oral 2.5 mg/kg, last 6 weeks/14 weeks), the “fat globules and Mallory's hyaline bodies (H&E staining of liver)” value was “reduced”.
